The values below come from the METLIN SMRT retention time set (Domingo-Almenara et al. 2019).

The nature of the data set: gradient 5% acetonitrile 3 min, to 50% in 2 min, to 85% in 15 min, held 3 min, 100 µL/min. The note with it: column: Zorbax Extend-C18 2.1 x 50 mm; eluents: water / acetonitrile, 0.1% formic acid. Put shortly: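 Standards, all pure, were combined into mixtures of ~100 molecules and run at 100 μL/min on a Zorbax Extend-C18 column (2.1 × 50 mm, 1.8 μm) with water and acetonitrile, each containing 0.1% formic acid. A coupled quadrupole time-of-flight mass spectrometer operated in positive and negative ionization mode. Retention time values come from computationally picked adduct peaks, each inspected manually.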
Compound `Cc1cc(C)n(-c2cc(NC(C)C)ncn2)n1` registered an RP-LC retention time of 756 s.
`Cc1ccc2c(c1)C(=O)NC1(CCN(C(=O)c3cc(F)cc(F)c3)CC1)N2C`: the RP-LC retention time amounted to 752 s.
For `Cc1ccc(-c2nc3sc(N4CCCCC4)nn3c2NC(=O)C2CC2)cc1` the value was 885 s; for `O=C(c1ccc(Cl)s1)N1CCC(n2cnnc2C2CC2)CC1`, 664 s; for `Cc1ccc(S(=O)(=O)N2CCCC(c3nnc(CC(C)(C)C)o3)C2)cc1C` (stereo unspecified), 1030 s.
For `CCCn1ccc2oc(C)c(C(=O)N3CCN(c4ccc(OC)cc4)CC3)c2c1=O` the value was 707 s; for `O=C(Nc1nsc(-c2ccccc2)n1)c1cccs1`, 743 s; for `O=C(Cn1cnc2nc(N3CCCC(C(=O)NC4CC4)C3)sc2c1=O)Nc1ccccc1Cl` (stereo unspecified), 686 s.
With `O=C(O)c1ccc(S(=O)(=O)N2CCc3ccccc3C2)cc1` the figure was 773 s; with `O=C(Nc1ccc(Cl)cc1)C1CCc2nc(N3CCOCC3)ncc2C1` (stereo unspecified), 757 s; with `COc1ccc(C(=O)Nc2nc(-c3ccccc3)cs2)cc1`, 1040 s.
The compound `CCCN(CCC)c1nc2cc(C(=O)OC)ccc2c(=O)n1-c1ccccc1` had an RP-LC retention time of 1320 s.
With `O=C(CCc1nc2sc3c(c2c(=O)[nH]1)CCCCC3)N1CCN(c2ccccn2)CC1` the figure was 603 s.
For `COc1ccc(C2CC(=O)N(c3ccc(F)c(Cl)c3)C(=O)C2)cc1OC` the value was 915 s; for `O=C(O)c1ccc2c(c1)CC(=O)N2Cc1cccc(F)c1`, 729 s; for `COCC1CN(C2CCC2)CC12CCN(C(=O)Cc1ccsc1)CC2` (stereo unspecified), 608 s.
For `Cn1c(Cn2c(=O)sc3ccccc32)nnc1SCC(=O)NCC1CCCO1` (stereo unspecified) the value was 608 s; for `Cn1nc(C(F)(F)F)cc1C(=O)N1CCCC1c1ccccc1Cl` (stereo unspecified), 1030 s; for `COc1cccc(CNc2c(-c3nc(C(C)C)no3)cnc3nc(C)ccc23)c1`, 790 s.
Consider `CCC(C)NC(=O)N1CC(Oc2ccc(-c3nc(-c4ccccc4)no3)cc2)C1` (stereo unspecified), for which the RP-LC retention time is 712 s.
For `COc1ccccc1C(=O)N1CCCC1c1cc(C(C)C)on1` (stereo unspecified) the value was 831 s.
For `CC(C)C(=O)Nc1ccc(CCc2nc3ccc(C(=O)NC4CCCC4)cc3[nH]2)cc1` the value was 650 s.
For `CC(C)n1cnc2cc(CNC(=O)c3cccc(C#N)c3)ccc21`, the RP-LC retention time is 596 s.
With `COc1ccc(OC)c(NS(=O)(=O)c2ccc3c(c2)-c2oncc2CO3)c1` the figure was 889 s; with `CSc1ccc(-c2nc3cnccn3c2Nc2ccccc2C)cc1`, 974 s.
For `CN(C)c1nc2ncn3c(=O)n(CC(=O)Nc4ccccc4)nc3c2s1` the value was 670 s; for `CCOC(=O)Cc1c(C)nc2c(-c3ccccc3)cnn2c1C`, 1000 s.
For `COc1ccc(NC(=O)N2CCCC2c2nc(-c3ccccc3OC)no2)cc1` (stereo unspecified) the value was 826 s; for `O=C(c1cc(F)ccc1F)N1CCN(C(=O)c2nnn3c2COC(c2ccccc2)C3)CC1` (stereo unspecified), 817 s.
In the case of `CCOc1ccc(C(=O)N2CCCN(c3cc(-c4ccc(Br)cc4)[nH]n3)CC2)cc1OCC`, the RP-LC retention time stood at 853 s.
With `Cc1ccc(CNC(=O)CN2C(=O)C(Oc3ccc(F)cc3)C23CCCCC3)o1` (stereo unspecified) the figure was 1020 s; with `Cc1nc(C)c(C(=O)Nc2nc(-c3ccc(Br)cc3)c(C)s2)s1`, 1100 s.
For `CCC(=O)N1CCc2cc(N3CC(C(=O)NCc4ccccc4)CC3=O)ccc21` (stereo unspecified) the value was 699 s.
Regarding `Cc1ccccc1C(=O)Nc1nc(-c2ccc3c(c2)NC(=O)CO3)c(C)s1`, the RP-LC retention time was 898 s.
Take `Cc1ccccc1-c1noc(N2CCC(C(=O)N3CCN(C4CCCCC4)CC3)CC2)n1`: the RP-LC retention time amounted to 705 s.
For `Cc1ccc(Cn2cc(-c3noc(-c4cccc(N(C)C)c4)n3)nn2)cc1` the value was 1100 s; for `CSc1ccc(CNC(=O)COc2nc(C)nc3ccccc23)cc1`, 734 s.
For `CCc1ccc(S(=O)(=O)c2cnc(N3CCN(c4ccccc4F)CC3)nc2N)cc1` the value was 1200 s.
`CCCc1c(C(=O)O)nnn1-c1cc(C)ccc1F` showed an RP-LC retention time of 787 s.
With `O=C(NCc1cccnc1-c1ccccc1)c1cccc(Br)c1` the figure was 692 s.
`OC(COc1ccccc1Cl)Cn1c(C2CC2)nc2ccccc21` (stereo unspecified): the RP-LC retention time came to 693 s.
With `Cc1ccccc1S(=O)(=O)N1CCCC(CCC(=O)O)C1` (stereo unspecified) the figure was 774 s; with `Cc1ccccc1CNC(=O)C1(C)CCCN(C(=O)Nc2cccc(Cl)c2)C1` (stereo unspecified), 1030 s.
With `CC(NC(=O)C1CCc2nc(N3CCOCC3)ncc2C1)c1ccco1` (stereo unspecified) the figure was 630 s; with `CCCCC(=O)N1CCc2c(c(C(=O)N3CCCC(C(=O)Nc4ccccc4C)C3)nn2C)C1` (stereo unspecified), 797 s; with `Cc1ccc(-c2ccc(CNc3ncn[nH]3)o2)cc1Cl`, 731 s.
Regarding `CCCNC(=O)C1CCN(Cc2cc3ccccc3n2Cc2ccccc2)CC1`, the RP-LC retention time turned out to be 704 s.
For `CCOc1ccc(NC(=O)c2cnc(-c3ccc(OC)cc3)nc2-c2ccncc2)cc1` the value was 875 s.
With `CC(C)c1nc(N2CCCC2=O)sc1C(=O)NCc1ccc(F)cc1` the figure was 970 s; with `Cc1cccc(N2CCN(c3ccc4nnc(CCc5nc(-c6ccccc6C)no5)n4n3)CC2)c1`, 1220 s; with `CCCCOc1ccc(C(=O)NC2(c3nc(C)no3)CCCCC2)cc1`, 1080 s.
Consider `CCOc1ccc(NS(=O)(=O)c2cc(C(=O)N3CCN(c4ccccn4)CC3)n[nH]2)cc1`, for which the RP-LC retention time was 619 s.
For `CCCN1C(=O)COc2ccc(-c3csc(NC(=O)/C=C/c4ccc(OCC)c(OC)c4)n3)cc21` the value was 1090 s; for `COc1ccc(CNC(=O)c2cn3ccccc3n2)cc1OC`, 605 s.
Regarding `CCC(CC)C(=O)Nc1nc(-c2ccc3c(c2)N(CC)C(=O)CO3)cs1`, the RP-LC retention time stood at 980 s.
For `Cc1cccc(-c2noc(Cn3cnc4c(oc5ccccc54)c3=O)n2)c1` the value was 996 s.
For `O=C(NC1CCCC1)c1cccnc1N1CCCCC1` the value was 684 s; for `O=c1[nH]nc(-c2cc(-c3ccccc3)nc3ccccc23)o1`, 985 s; for `O=C(c1ccccc1Br)N1CCc2nc(-c3ccc(Cl)cc3)ncc2C1`, 1110 s.
With `CCOc1ccc(-c2nc3ncccn3c2NC2CCCCC2)cc1` the figure was 808 s; with `Cc1ccc(-c2csc(NC(=O)CSc3nc4c(cc3C#N)CN(C(C)C)CC4)n2)cc1`, 741 s.
